{
  "source": "paper PMC3271436",
  "about": "(Osteoarthritis and Cartilage, 2008)",
  "type_in_all_cases": "biochemical",
  "key": {"[1]": {"target": "T1, IGFBP-5 protease activity in human osteoarthritic joint fluid (Homo sapiens, UniProt P09871)", "T1 sequence (P09871 16-688)": "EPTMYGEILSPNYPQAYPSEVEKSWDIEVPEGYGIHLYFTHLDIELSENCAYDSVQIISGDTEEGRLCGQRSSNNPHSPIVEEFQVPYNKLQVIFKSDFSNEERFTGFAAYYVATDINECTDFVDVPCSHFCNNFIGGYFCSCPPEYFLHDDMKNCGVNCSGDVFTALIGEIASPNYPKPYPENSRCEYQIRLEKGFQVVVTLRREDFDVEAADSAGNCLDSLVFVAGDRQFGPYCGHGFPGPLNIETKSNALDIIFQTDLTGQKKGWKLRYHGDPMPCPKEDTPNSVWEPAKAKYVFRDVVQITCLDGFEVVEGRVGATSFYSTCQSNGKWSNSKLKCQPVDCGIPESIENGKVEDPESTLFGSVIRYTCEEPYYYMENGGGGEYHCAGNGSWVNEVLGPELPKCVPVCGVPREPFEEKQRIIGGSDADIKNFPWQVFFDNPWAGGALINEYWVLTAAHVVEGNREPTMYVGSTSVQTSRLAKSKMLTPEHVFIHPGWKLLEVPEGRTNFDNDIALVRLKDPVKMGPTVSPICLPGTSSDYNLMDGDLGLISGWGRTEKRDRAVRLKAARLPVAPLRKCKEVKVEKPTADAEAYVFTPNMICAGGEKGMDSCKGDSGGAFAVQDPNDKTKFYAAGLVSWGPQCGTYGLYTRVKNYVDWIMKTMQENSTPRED"}, "[2]": {"target": "T2, purified IGFBP-5 protease from human osteoarthritic joint fluid (complement 1s) (Homo sapiens, UniProt P09871)", "T2 sequence (P09871 16-688)": "T1 sequence (P09871 16-688)", "assay": "IGFBP-5 cleavage by protease purified from joint fluid"}, "[3]": {"target": "T3, purified C1s (Calbiochem) (Homo sapiens, UniProt P09871)", "T3 sequence (P09871 16-688)": "T1 sequence (P09871 16-688)", "assay": "C1s chromogenic assay with purified commercial C1s, substrate S-2765"}},
  "data": [
    {"smiles": "c1cnc2c(c1)ccc1cccnc12", "note": "[1,10-phenanthroline]", "values": [
      {"measurement": "Human Joint Fluid IC50", "setting": "[1]; crude joint fluid, 118 ng IGFBP-5, 16 h at 37°C", "result": "No Inhibition"},
      {"measurement": "Purified Protease IC50", "setting": "[2]; protease purified through Con-A step, 118 ng IGFBP-5, 16 h at 37°C", "result": "No inhibition"}
    ]},
    {"smiles": "N=C(N)c1ccc2cc(OC(=O)c3ccc(N=C(N)N)cc3)ccc2c1", "note": "[FUT175]", "values": [
      {"measurement": "activity in words against IGFBP-5 protease activity in crude joint fluid", "setting": "[1]; 0.1 to 360 uM", "result": "most active"},
      {"measurement": "IC50", "setting": "[2]", "result": 1000, "unit": "nM"},
      {"measurement": "activity in words against the purified joint fluid preparation", "setting": "[2]; purified joint fluid preparation", "result": "most active"},
      {"measurement": "C1s inhibition in words", "setting": "[3]", "result": "potent C1s inhibitor"},
      {"measurement": "IC50", "setting": "[3]", "result": 70, "unit": "nM"}
    ]}
  ]
}
